Test results: patent US20020048549A1, “Radioactive transition metal nitride heterocomplex” (priority 1996, published 2002)
Read-outs that look alike come from different tables or passages of the source.

Test: Biodistribution of 99mTc(N)(X)(DTC)+ heterocomplexes in rats
Format: in vivo, male Spraque-Dawley rats (SD rats)
Description: The biodistribution of a ^99mTc nitride heterocomplex represented by the general formula ^99mTc(N)(X)(Y) was investigated as follows: ^99mTc nitride heterocomplexes were synthesized using DTC as a bidentate ligand Y and each of the diphosphine compounds X described below, and the biodistribution in rats of each heterocomplex was investigated.
Before being injected into rats, the contents of the vial were diluted with phosphate buffer (0.1 mol/dm^3, pH=7.06) containing 10% Tween 80 ([…]). The complexes were stable in the solutions and in human plasma for at least 6 hours.
The biodistribution was measured using male Spraque-Dawley rats (SD rats) weighing 200 to 250 g. After 24 hours fasting, the rats were put under intraperitoneal anesthesia and given an injection in the jugular vein. Then, the organs were excised from the rats at different intervals of time, washed and then weighed. In addition, blood samples were collected and then weighed. The data on the biodistribution are expressed as the mean±significant difference of the percentage of radioactivity level per gram of the organ weight based on the dose of radioactivity, (% dose/g). The measurement was carried out using groups of 5 rats each.

CSC1=[S+][99Tc-2]2(#[N])([NH]N1C)[P+](c1ccccc1)(c1ccccc1)CCOCC[P+]2(c1ccccc1)c1ccccc1 [^99mTc(N)(POP)(DTC)^+]
Bone % dose/g: 0.225 ± 0.01 % dose/g
Heart % dose/g: 0.923 ± 0.04 % dose/g
Liver % dose/g: 3.662 ± 0.43 % dose/g
Spleen % dose/g: 2.202 ± 0.07 % dose/g
Blood % dose/g (0 min after injection): 2.617 ± 0.04 % dose/g
Brain % dose/g (0 min after injection): 0.142 ± 0.14 % dose/g
Intestine % dose/g (0 min after injection): 0.482 ± 0.02 % dose/g
Kidney % dose/g (0 min after injection): 3.141 ± 0.35 % dose/g
Lung % dose/g (0 min after injection): 2.792 ± 0.18 % dose/g
Muscle % dose/g (0 min after injection): 0.087 ± 0.00 % dose/g
Stomach % dose/g (0 min after injection): 0.522 ± 0.09 % dose/g
Blood % dose/g (2 min after injection): 1.254 ± 0.19 % dose/g
Bone % dose/g (2 min after injection): 0.214 ± 0.05 % dose/g
Brain % dose/g (2 min after injection): 0.073 ± 0.00 % dose/g
Heart % dose/g (2 min after injection): 0.73 ± 0.07 % dose/g
Intestine % dose/g (2 min after injection): 0.581 ± 0.06 % dose/g
Kidney % dose/g (2 min after injection): 5.952 ± 0.74 % dose/g
Liver % dose/g (2 min after injection): 4.821 ± 0.71 % dose/g
Lung % dose/g (2 min after injection): 2.387 ± 0.08 % dose/g
Muscle % dose/g (2 min after injection): 0.075 ± 0.00 % dose/g
Spleen % dose/g (2 min after injection): 3.587 ± 0.99 % dose/g
Stomach % dose/g (2 min after injection): 0.493 ± 0.02 % dose/g
Blood % dose/g (10 min after injection): 0.542 ± 0.02 % dose/g
Bone % dose/g (10 min after injection): 0.306 ± 0.07 % dose/g
Brain % dose/g (10 min after injection): 0.029 ± 0.00 % dose/g
Heart % dose/g (10 min after injection): 0.434 ± 0.05 % dose/g
Intestine % dose/g (10 min after injection): 0.934 ± 0.03 % dose/g
Kidney % dose/g (10 min after injection): 4.805 ± 0.51 % dose/g
Liver % dose/g (10 min after injection): 6.161 ± 0.47 % dose/g
Lung % dose/g (10 min after injection): 1.19 ± 0.40 % dose/g
Muscle % dose/g (10 min after injection): 0.069 ± 0.01 % dose/g
Spleen % dose/g (10 min after injection): 3.538 ± 0.70 % dose/g
Stomach % dose/g (10 min after injection): 0.653 ± 0.06 % dose/g
Blood % dose/g (30 min after injection): 0.547 ± 0.01 % dose/g
Bone % dose/g (30 min after injection): 0.21 ± 0.02 % dose/g
Brain % dose/g (30 min after injection): 0.023 ± 0.00 % dose/g
Heart % dose/g (30 min after injection): 0.428 ± 0.05 % dose/g
Intestine % dose/g (30 min after injection): 0.64 ± 0.00 % dose/g
Kidney % dose/g (30 min after injection): 3.25 ± 1.12 % dose/g
Liver % dose/g (30 min after injection): 6.199 ± 0.15 % dose/g
Lung % dose/g (30 min after injection): 1.05 ± 0.13 % dose/g
Muscle % dose/g (30 min after injection): 0.083 ± 0.03 % dose/g
Spleen % dose/g (30 min after injection): 2.07 ± 0.55 % dose/g
Stomach % dose/g (30 min after injection): 0.216 ± 0.01 % dose/g
Blood % dose/g (1 hr after injection): 0.261 ± 0.14 % dose/g
Bone % dose/g (1 hr after injection): 0.327 ± 0.02 % dose/g
Brain % dose/g (1 hr after injection): 0.019 ± 0.00 % dose/g
Heart % dose/g (1 hr after injection): 0.42 ± 0.05 % dose/g
Intestine % dose/g (1 hr after injection): 1.236 ± 0.03 % dose/g
Kidney % dose/g (1 hr after injection): 5.054 ± 0.18 % dose/g
Liver % dose/g (1 hr after injection): 5.128 ± 0.15 % dose/g
Lung % dose/g (1 hr after injection): 0.771 ± 0.09 % dose/g
Muscle % dose/g (1 hr after injection): 0.068 ± 0.01 % dose/g
Spleen % dose/g (1 hr after injection): 3.542 ± 1.23 % dose/g
Stomach % dose/g (1 hr after injection): 0.944 ± 0.16 % dose/g
Blood % dose/g (2 hr after injection): 0.145 ± 0.01 % dose/g
Bone % dose/g (2 hr after injection): 0.296 ± 0.01 % dose/g
Brain % dose/g (2 hr after injection): 0.018 ± 0.01 % dose/g
Heart % dose/g (2 hr after injection): 0.384 ± 0.00 % dose/g
Intestine % dose/g (2 hr after injection): 1.478 ± 0.09 % dose/g
Kidney % dose/g (2 hr after injection): 5.145 ± 0.11 % dose/g
Liver % dose/g (2 hr after injection): 3.05 ± 0.07 % dose/g
Lung % dose/g (2 hr after injection): 0.757 ± 0.05 % dose/g
Muscle % dose/g (2 hr after injection): 0.066 ± 0.03 % dose/g
Spleen % dose/g (2 hr after injection): 4.32 ± 0.19 % dose/g
Stomach % dose/g (2 hr after injection): 1.857 ± 0.22 % dose/g
Blood % dose/g (4 hr after injection): 0.125 ± 0.00 % dose/g
Bone % dose/g (4 hr after injection): 0.321 ± 0.01 % dose/g
Brain % dose/g (4 hr after injection): 0.01 ± 0.00 % dose/g
Heart % dose/g (4 hr after injection): 0.303 ± 0.01 % dose/g
Intestine % dose/g (4 hr after injection): 1.843 ± 0.02 % dose/g
Kidney % dose/g (4 hr after injection): 1.745 ± 0.11 % dose/g
Liver % dose/g (4 hr after injection): 1.538 ± 0.01 % dose/g
Lung % dose/g (4 hr after injection): 0.549 ± 0.03 % dose/g
Muscle % dose/g (4 hr after injection): 0.067 ± 0.00 % dose/g
Spleen % dose/g (4 hr after injection): 3.094 ± 0.50 % dose/g
Stomach % dose/g (4 hr after injection): 1.74 ± 0.01 % dose/g
